{"source": "patent US10874103B2", "about": "“Antibacterial composition comprising an acetal or a long-chain alkyl hexitane ether” (TEREOS STARCH & SWEETENERS BELGIUM, priority 2014, dated 2020)", "key": {"[1]": {"tested_on": "Enterococci: E. faecium strains", "test": "MIC microdilution on wider panel (Example 8), E. faecium strains", "type": "cell-based", "procedure": "(§1) The cultures studied, freshly isolated (after incubation on a blood agar at 37° C. for 18 h), are taken up in sterile water (10 mL) until a 0.5 McFarland (Mc) suspension i.e. at 1 to 2×10^8 CFU (bacteria)/cm^3 is obtained. The bacterial suspension was then diluted to obtain a final concentration of 1×10^6 CFU/cm^3.\n(§2) Each well contains an identical quantity of Mueller-Hinton medium (a rich medium for bacterial culture) and bacteria with final 0.5×10^6 CFU/cm^3.\n(§3) The test compounds of interest are solubilized in ethanol or DMSO at 25 mg/mL before being diluted to different concentrations two by two. On the multiwell plate, a first series has been planned comprising the culture medium without the test compound of interest. It corresponds to the growth control (control well). These controls serve as reference for comparing bacterial growth with that of the subsequent wells comprising different concentrations of the test compound of interest. The second series of wells comprises the mother solution for the test compound of interest for a concentration in the wells of 256 mg (7 mM). Each series of wells was diluted two by two until the last series for a final concentration of 0.25 mg/L (0.0007 mM). Each concentration is duplicated in the same plate. The plate is incubated for 18 h at 37° C. […] If there is antibacterial activity, the bacterial growth is inhibited, which means that no turbidity or bacterial residue is present.\n(§4) The minimum inhibitory concentrations (MIC) are tested on Gram-positive bacterial strains according to the recommendations of the “Clinical Laboratory Standards Institute” (Clinical-Laboratory-Standards-Institute, 6th ed. Approved standard M100-S17. CLSI, Wayne, Pa., 2007). The clinical strains have been isolated in the Hospice de Lyon.\nEnterococci: E. faecium (CIP 103510), clinical strains of Enterococci E. faecium: Van A 0151850763 (hereinafter Van A); strain 015 205731401 (hereinafter 1401), […]"}, "[2]": {"tested_on": "L. monocytogenes (CIP 103575), E. faecalis (ATCC® 29212™) and S. aureus (ATCC® 292213™)", "test": "MBC, statement for all Gram-positive strains tested together", "type": "cell-based", "conditions": "all three strains", "procedure": "(§5) To determine whether the agents tested are bactericidal, the minimum bactericidal concentration (MBC) is determined. The MBC corresponds to the concentration leaving a number of bacterial survivors of <4 log. For this, a bacterial count is run from clear wells or without bacterial residue (C≤MIC). To do this, a dilution to 1/100 was conducted with the two wells with the same concentration before seeding on a blood agar using the Spiral technique. After 24 h of incubation at 37° C., the visual count allowed determination of the minimum concentration from which there is no bacterial growth.\n(§6) To determine the bactericidal effect of compounds presenting bacteriostatic properties, the wells no longer presenting turbidity were reseeded on agar."}, "[3]": {"tested_on": "E. faecalis (ATCC® 29212™)", "test": "MBC, bacterial count from clear wells reseeded on agar (Example 5)", "type": "cell-based", "conditions": "Table 2; reseeded on agar", "procedure": "as §5, §6"}, "[4]": {"tested_on": "S. aureus (ATCC® 292213™)", "test": "MBC, bacterial count from clear wells reseeded on agar (Example 5)", "type": "cell-based", "conditions": "Table 2", "procedure": "as §5, §6"}, "[5]": {"tested_on": "L. monocytogenes (CIP 103575)", "test": "MBC, bacterial count from clear wells reseeded on agar (Example 5)", "type": "cell-based", "conditions": "Table 2; reseeded on agar", "procedure": "as §5, §6"}, "[6]": {"tested_on": "Listeria: L. monocytogenes strains", "test": "MIC microdilution on wider panel (Example 8), Listeria strains", "type": "cell-based", "procedure": "The cultures studied, freshly isolated (after incubation on a blood agar at 37° C. for 18 h), are taken up in sterile water (10 mL) until a 0.5 McFarland (Mc) suspension i.e. at 1 to 2×10^8 CFU (bacteria)/cm^3 is obtained. The bacterial suspension was then diluted to obtain a final concentration of 1×10^6 CFU/cm^3. Each well contains an identical quantity of Mueller-Hinton medium (a rich medium for bacterial culture) and bacteria with final 0.5×10^6 CFU/cm^3. The test compounds of interest are solubilized in ethanol or DMSO at 25 mg/mL before being diluted to different concentrations two by two. On the multiwell plate, a first series has been planned comprising the culture medium without the test compound of interest. It corresponds to the growth control (control well). These controls serve as reference for comparing bacterial growth with that of the subsequent wells comprising different concentrations of the test compound of interest. The second series of wells comprises the mother solution for the test compound of interest for a concentration in the wells of 256 mg (7 mM). Each series of wells was diluted two by two until the last series for a final concentration of 0.25 mg/L (0.0007 mM). Each concentration is duplicated in the same plate. The plate is incubated for 18 h at 37° C. […] If there is antibacterial activity, the bacterial growth is inhibited, which means that no turbidity or bacterial residue is present. The minimum inhibitory concentrations (MIC) are tested on Gram-positive bacterial strains according to the recommendations of the “Clinical Laboratory Standards Institute” (Clinical-Laboratory-Standards-Institute, 6th ed. Approved standard M100-S17. CLSI, Wayne, Pa., 2007). The clinical strains have been isolated in the Hospice de Lyon. Listeria: L. monocytogenes (CIP 103575), clinical strain isolated from hemoculture (015189074801, LM1), a strain isolated from cerebrospinal liquid (015170199001, LM2), clinical strains isolated from hemoculture (015181840701, LM3). The cultures studied, freshly isolated (after incubation on a blood agar at 37° C. for 18 h), are taken up in sterile water (10 mL) until a 0.5 McFarland (Mc) suspension i.e. at 10^8 CFU (bacteria)/cm^3 is obtained. The bacterial suspension was then diluted to obtain a final concentration of 10^6 CFU/cm^3."}, "[7]": {"tested_on": "Staphylococcus Aureus strains", "test": "MIC microdilution on wider panel (Example 8), Staphylococcus strains", "type": "cell-based, S. aureus", "procedure": "as §1, §2, §3, §4\nStaphylococci S. aureus: ATCC® 29213™, ATCC 25923,\nStaphylococci strains Daptomycin-resistant S. aureus (ST 2015-0188), (ST 2014 1288).\nas §1, with “10^8” for “1 to 2×10^8”, “10^6” for “1×10^6”"}}}
{"substance": "Dodecyl-1,4-d-sorbitan [Example 2e]", "values": [{"measurement": "Minimum inhibitory concentration (MIC) CIP 103510", "setting": "[1]; E. faecium CIP 103510", "value": 16, "unit": "µg/mL"}, {"measurement": "Minimum inhibitory concentration (MIC) Van A", "setting": "[1]; clinical E. faecium Van A 0151850763", "value": 16, "unit": "µg/mL"}, {"measurement": "Minimum inhibitory concentration (MIC) 1401", "setting": "[1]; clinical E. faecium strain 015 205731401", "value": 8, "unit": "µg/mL"}, {"measurement": "MBC for all the Gram-positive strains tested", "setting": "[2]", "value": 120, "unit": "µM"}, {"measurement": "minimum bactericidal concentration (MBC) E. faecalis", "setting": "[3]", "value": 120, "unit": "µM"}, {"measurement": "minimum bactericidal concentration (MBC) S. aureus", "setting": "[4]", "value": 120, "unit": "µM"}, {"measurement": "minimum bactericidal concentration (MBC) L. monocytogenes", "setting": "[5]", "value": 120, "unit": "µM"}, {"measurement": "Minimum inhibitory concentration (MIC) CIP 103575", "setting": "[6]; L. monocytogenes CIP 103575", "value": 32, "unit": "µg/mL"}, {"measurement": "Minimum inhibitory concentration (MIC) LM3", "setting": "[6]; clinical strain from hemoculture 015181840701", "value": 32, "unit": "µg/mL"}, {"measurement": "Minimum inhibitory concentration (MIC) LM1", "setting": "[6]; clinical strain from hemoculture 015189074801", "value": 16, "unit": "µg/mL"}, {"measurement": "Minimum inhibitory concentration (MIC) LM2", "setting": "[6]; strain from cerebrospinal liquid 015170199001", "value": 32, "unit": "µg/mL"}, {"measurement": "Minimum inhibitory concentration (MIC) ST 2014 1288", "setting": "[7]; Daptomycin-resistant S. aureus ST 2014 1288", "value": 64, "unit": "µg/mL"}, {"measurement": "Minimum inhibitory concentration (MIC) ST 2015 0188", "setting": "[7]; Daptomycin-resistant S. aureus ST 2015-0188", "value": 64, "unit": "µg/mL"}, {"measurement": "Minimum inhibitory concentration (MIC) HT 2002-0417", "setting": "[7]; Methicillin-resistant S. aureus HT 2002-0417", "value": 32, "unit": "µg/mL"}, {"measurement": "Minimum inhibitory concentration (MIC) HT 2004-0012", "setting": "[7]; Methicillin-resistant S. aureus HT 2004-0012", "value": 32, "unit": "µg/mL"}, {"measurement": "Minimum inhibitory concentration (MIC) HT 2006-1004", "setting": "[7]; Methicillin-resistant S. aureus HT 2006-1004", "value": 32, "unit": "µg/mL"}, {"measurement": "Minimum inhibitory concentration (MIC) LY 199-0053", "setting": "[7]; Methicillin-resistant S. aureus LY 199-0053", "value": 32, "unit": "µg/mL"}, {"measurement": "Minimum inhibitory concentration (MIC) USA 300", "setting": "[7]; Methicillin-resistant S. aureus Lac-Deleo USA 300", "value": 32, "unit": "µg/mL"}, {"measurement": "Minimum inhibitory concentration (MIC) MU 3", "setting": "[7]; Methicillin-resistant S. aureus MU 3", "value": 64, "unit": "µg/mL"}, {"measurement": "Minimum inhibitory concentration (MIC) ATCC 25923", "setting": "[7]; S. aureus ATCC 25923", "value": 32, "unit": "µg/mL"}, {"measurement": "Minimum inhibitory concentration (MIC) ATCC 29213", "setting": "[7]; S. aureus ATCC 29213", "value": 32, "unit": "µg/mL"}]}
